Results from the kinase profiling compilation of Christmann-Franck et al. (2016).

Key:
SLK (human) = SLK (human) (UniProt Q9H2G2); assay: KINOMEscan competition binding; conditions: compound 10.0 µM
PTK2B (human) = PTK2B (human) (UniProt Q14289); assay: KINOMEscan competition binding; conditions: compound 10.0 µM
TTK (human) [1] = molecular target: TTK (human) (UniProt P33981); assay: KINOMEscan competition binding; conditions: for kinase still bound, per cent of control: compound 10.0 µM
MYLK (human) = MYLK (human) (UniProt Q15746); assay: KINOMEscan competition binding; conditions: compound 10.0 µM
PRKD3 (human) = PRKD3 (human) (UniProt O94806); assay: KINOMEscan competition binding; conditions: compound 10.0 µM
RPS6KA6 KD2 (human) = RPS6KA6 KD2 (human) (UniProt Q9UK32); assay: KINOMEscan competition binding; conditions: compound 10.0 µM
PTK2 (human) = PTK2 (human) (UniProt Q05397); assay: KINOMEscan competition binding; conditions: compound 10.0 µM
ALK (human) = ALK (human) (UniProt Q9UM73); assay: KINOMEscan competition binding; conditions: compound 10.0 µM
MINK1 (human) = MINK1 (human) (UniProt Q8N4C8); assay: KINOMEscan competition binding; conditions: compound 10.0 µM
FER (human) = FER (human) (UniProt P16591); assay: KINOMEscan competition binding; conditions: compound 10.0 µM
PRKD2 (human) = PRKD2 (human) (UniProt Q9BZL6); assay: KINOMEscan competition binding; conditions: compound 10.0 µM
GAK (human) = GAK (human) (UniProt O14976); assay: KINOMEscan competition binding; conditions: compound 10.0 µM
INSRR (human) = INSRR (human) (UniProt P14616); assay: KINOMEscan competition binding; conditions: compound 10.0 µM
ULK2 (human) = ULK2 (human) (UniProt Q8IYT8); assay: KINOMEscan competition binding; conditions: compound 10.0 µM
STK33 (human) = STK33 (human) (UniProt Q9BYT3); assay: KINOMEscan competition binding; conditions: compound 10.0 µM
ULK1 (human) = ULK1 (human) (UniProt O75385); assay: KINOMEscan competition binding; conditions: compound 10.0 µM
PRKD1 (human) = PRKD1 (human) (UniProt Q15139); assay: KINOMEscan competition binding; conditions: compound 10.0 µM
DCLK2 (human) = DCLK2 (human) (UniProt Q8N568); assay: KINOMEscan competition binding; conditions: compound 10.0 µM
PLK1 (human) = PLK1 (human) (UniProt P53350); assay: KINOMEscan competition binding; conditions: compound 10.0 µM
CAMKK2 (human) = CAMKK2 (human) (UniProt Q96RR4); assay: KINOMEscan competition binding; conditions: compound 10.0 µM
DCLK1 (human) = DCLK1 (human) (UniProt O15075); assay: KINOMEscan competition binding; conditions: compound 10.0 µM
PLK3 (human) = PLK3 (human) (UniProt Q9H4B4); assay: KINOMEscan competition binding; conditions: compound 10.0 µM
RPS6KA2 KD2 (human) = RPS6KA2 KD2 (human) (UniProt Q15349); assay: KINOMEscan competition binding; conditions: compound 10.0 µM
RPS6KA1 KD2 (human) = RPS6KA1 KD2 (human) (UniProt Q15418); assay: KINOMEscan competition binding; conditions: compound 10.0 µM
[2] = tested on: EIF2AK4 KD2 (human), Q9P2K8 [S808G]; assay: KINOMEscan competition binding; conditions: compound 10.0 µM
RPS6KA4 KD2 (human) = RPS6KA4 KD2 (human) (UniProt O75676); assay: KINOMEscan competition binding; conditions: compound 10.0 µM
CHEK1 (human) = CHEK1 (human) (UniProt O14757); assay: KINOMEscan competition binding; conditions: compound 10.0 µM
PLK4 (human) = PLK4 (human) (UniProt O00444); assay: KINOMEscan competition binding; conditions: compound 10.0 µM
TTK (human) [3] = molecular target: TTK (human) (UniProt P33981); assay: SelectScreen, TR FRET
[4] = tested on: EGFR (human), P00533 [A750P; 747-749 del]; assay: KINOMEscan competition binding; conditions: compound 10.0 µM
[5] = tested on: EGFR (human), P00533 [747-751 del / S ins]; assay: KINOMEscan competition binding; conditions: compound 10.0 µM
DAPK2 (human) = DAPK2 (human) (UniProt Q9UIK4); assay: KINOMEscan competition binding; conditions: compound 10.0 µM
[6] = tested on: EGFR (human), P00533 [752-759 del]; assay: KINOMEscan competition binding; conditions: compound 10.0 µM
TNK1 (human) = TNK1 (human) (UniProt Q13470); assay: KINOMEscan competition binding; conditions: compound 10.0 µM
[7] = tested on: EGFR (human), P00533 [P753S; 747-752 del]; assay: KINOMEscan competition binding; conditions: compound 10.0 µM
[8] = tested on: EGFR (human), P00533 [G719C; 746-750 del]; assay: KINOMEscan competition binding; conditions: compound 10.0 µM

Sequence of TTK (human) (P33981 whole entry, looked up): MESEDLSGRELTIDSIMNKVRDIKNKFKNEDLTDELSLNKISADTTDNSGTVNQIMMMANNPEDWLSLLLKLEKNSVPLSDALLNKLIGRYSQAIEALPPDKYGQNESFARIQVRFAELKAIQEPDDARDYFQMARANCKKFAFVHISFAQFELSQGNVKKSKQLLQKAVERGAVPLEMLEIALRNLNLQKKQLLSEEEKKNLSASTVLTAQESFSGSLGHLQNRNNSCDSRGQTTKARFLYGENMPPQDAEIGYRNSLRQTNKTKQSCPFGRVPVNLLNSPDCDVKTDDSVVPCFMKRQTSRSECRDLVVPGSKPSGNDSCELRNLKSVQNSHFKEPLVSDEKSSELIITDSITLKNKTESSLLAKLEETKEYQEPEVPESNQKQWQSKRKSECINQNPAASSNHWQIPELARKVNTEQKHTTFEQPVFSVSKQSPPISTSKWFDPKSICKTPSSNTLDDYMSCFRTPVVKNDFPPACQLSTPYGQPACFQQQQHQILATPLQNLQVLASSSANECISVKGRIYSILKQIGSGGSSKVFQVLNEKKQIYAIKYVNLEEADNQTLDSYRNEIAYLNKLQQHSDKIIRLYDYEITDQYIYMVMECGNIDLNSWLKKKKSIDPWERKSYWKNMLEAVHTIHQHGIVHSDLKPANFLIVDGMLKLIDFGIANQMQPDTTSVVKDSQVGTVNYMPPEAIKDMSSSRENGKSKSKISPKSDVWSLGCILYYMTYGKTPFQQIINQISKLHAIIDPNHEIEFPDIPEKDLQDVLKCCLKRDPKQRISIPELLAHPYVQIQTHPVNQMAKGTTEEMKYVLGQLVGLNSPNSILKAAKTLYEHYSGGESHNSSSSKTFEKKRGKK
Sequence of GAK (human) (O14976 whole entry, looked up): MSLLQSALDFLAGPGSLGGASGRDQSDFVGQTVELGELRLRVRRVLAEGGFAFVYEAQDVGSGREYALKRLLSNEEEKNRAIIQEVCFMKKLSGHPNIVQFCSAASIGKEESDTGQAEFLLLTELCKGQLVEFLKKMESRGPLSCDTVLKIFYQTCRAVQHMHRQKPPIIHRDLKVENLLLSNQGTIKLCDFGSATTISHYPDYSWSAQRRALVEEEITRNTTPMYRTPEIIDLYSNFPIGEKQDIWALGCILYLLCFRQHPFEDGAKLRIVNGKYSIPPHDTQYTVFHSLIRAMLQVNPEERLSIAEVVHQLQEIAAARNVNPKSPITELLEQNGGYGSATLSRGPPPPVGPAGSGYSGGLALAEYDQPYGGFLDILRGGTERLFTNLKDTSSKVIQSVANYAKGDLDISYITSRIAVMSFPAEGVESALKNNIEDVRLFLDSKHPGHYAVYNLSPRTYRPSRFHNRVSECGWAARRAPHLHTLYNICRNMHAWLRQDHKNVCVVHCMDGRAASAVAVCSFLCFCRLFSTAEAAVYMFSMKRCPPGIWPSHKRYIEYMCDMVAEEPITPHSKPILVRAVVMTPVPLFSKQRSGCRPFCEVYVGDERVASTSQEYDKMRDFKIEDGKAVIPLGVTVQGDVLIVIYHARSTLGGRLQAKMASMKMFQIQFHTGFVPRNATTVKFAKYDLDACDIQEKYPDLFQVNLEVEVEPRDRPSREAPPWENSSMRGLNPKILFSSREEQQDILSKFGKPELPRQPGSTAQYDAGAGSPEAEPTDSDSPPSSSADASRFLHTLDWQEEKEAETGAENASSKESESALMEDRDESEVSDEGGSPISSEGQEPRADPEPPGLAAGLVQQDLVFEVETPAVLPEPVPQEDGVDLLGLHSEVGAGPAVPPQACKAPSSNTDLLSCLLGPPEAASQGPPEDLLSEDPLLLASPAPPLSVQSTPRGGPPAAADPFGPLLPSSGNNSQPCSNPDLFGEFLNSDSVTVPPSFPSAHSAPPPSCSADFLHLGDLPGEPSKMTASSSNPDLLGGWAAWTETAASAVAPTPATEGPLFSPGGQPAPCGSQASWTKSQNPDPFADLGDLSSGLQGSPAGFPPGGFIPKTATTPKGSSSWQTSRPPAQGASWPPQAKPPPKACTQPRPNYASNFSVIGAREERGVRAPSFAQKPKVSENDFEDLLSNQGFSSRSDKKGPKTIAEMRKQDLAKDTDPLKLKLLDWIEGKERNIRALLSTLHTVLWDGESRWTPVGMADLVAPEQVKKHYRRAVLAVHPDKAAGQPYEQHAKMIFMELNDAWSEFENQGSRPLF
Sequence of PLK1 (human) (P53350 whole entry, looked up): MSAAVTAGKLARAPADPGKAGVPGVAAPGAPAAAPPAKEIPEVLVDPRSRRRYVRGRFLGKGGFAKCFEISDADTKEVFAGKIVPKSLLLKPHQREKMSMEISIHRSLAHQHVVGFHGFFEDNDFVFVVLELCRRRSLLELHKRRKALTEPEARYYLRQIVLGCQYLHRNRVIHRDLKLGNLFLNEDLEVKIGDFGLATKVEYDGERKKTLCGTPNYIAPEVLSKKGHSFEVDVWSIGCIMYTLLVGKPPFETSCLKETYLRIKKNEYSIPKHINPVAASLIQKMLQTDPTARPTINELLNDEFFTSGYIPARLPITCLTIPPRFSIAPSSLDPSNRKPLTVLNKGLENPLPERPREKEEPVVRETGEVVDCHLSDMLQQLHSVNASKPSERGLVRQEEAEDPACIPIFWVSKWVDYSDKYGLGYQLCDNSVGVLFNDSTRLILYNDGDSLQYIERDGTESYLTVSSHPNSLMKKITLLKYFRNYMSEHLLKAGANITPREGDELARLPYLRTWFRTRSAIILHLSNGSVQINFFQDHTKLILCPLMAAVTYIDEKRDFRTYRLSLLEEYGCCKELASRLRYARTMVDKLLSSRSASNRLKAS
Sequence of PLK3 (human) (Q9H4B4 whole entry, looked up): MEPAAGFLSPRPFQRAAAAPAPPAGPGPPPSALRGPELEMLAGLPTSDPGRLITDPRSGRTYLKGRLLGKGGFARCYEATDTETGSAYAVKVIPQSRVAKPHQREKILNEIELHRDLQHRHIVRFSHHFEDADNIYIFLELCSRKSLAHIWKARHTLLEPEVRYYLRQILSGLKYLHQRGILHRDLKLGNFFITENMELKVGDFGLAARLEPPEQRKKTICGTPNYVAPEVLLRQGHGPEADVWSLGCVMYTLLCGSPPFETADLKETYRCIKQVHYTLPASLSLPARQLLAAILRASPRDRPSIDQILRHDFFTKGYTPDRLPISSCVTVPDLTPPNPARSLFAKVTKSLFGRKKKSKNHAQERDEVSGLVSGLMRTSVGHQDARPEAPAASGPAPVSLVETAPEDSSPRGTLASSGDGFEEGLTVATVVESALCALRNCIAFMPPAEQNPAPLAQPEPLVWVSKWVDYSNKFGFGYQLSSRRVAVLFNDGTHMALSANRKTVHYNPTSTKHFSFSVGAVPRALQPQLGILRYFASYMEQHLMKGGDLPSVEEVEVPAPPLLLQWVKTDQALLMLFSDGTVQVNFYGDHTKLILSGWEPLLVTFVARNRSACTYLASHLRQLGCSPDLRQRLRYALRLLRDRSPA
Sequence of STK33 (human) (Q9BYT3 whole entry, looked up): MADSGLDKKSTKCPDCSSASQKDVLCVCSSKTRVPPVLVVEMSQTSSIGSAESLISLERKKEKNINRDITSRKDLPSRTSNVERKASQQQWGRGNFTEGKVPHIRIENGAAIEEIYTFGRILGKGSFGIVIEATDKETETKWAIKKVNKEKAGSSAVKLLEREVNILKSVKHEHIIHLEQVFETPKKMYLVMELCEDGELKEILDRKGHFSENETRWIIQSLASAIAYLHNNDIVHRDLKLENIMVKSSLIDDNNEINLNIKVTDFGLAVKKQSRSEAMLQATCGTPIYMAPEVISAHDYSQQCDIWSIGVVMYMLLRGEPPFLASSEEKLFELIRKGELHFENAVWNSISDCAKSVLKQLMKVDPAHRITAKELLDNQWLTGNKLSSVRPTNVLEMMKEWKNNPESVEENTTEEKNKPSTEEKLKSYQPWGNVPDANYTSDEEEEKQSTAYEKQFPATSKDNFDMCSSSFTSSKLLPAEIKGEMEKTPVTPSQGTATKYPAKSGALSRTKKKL
Sequence of PLK4 (human) (O00444 whole entry, looked up): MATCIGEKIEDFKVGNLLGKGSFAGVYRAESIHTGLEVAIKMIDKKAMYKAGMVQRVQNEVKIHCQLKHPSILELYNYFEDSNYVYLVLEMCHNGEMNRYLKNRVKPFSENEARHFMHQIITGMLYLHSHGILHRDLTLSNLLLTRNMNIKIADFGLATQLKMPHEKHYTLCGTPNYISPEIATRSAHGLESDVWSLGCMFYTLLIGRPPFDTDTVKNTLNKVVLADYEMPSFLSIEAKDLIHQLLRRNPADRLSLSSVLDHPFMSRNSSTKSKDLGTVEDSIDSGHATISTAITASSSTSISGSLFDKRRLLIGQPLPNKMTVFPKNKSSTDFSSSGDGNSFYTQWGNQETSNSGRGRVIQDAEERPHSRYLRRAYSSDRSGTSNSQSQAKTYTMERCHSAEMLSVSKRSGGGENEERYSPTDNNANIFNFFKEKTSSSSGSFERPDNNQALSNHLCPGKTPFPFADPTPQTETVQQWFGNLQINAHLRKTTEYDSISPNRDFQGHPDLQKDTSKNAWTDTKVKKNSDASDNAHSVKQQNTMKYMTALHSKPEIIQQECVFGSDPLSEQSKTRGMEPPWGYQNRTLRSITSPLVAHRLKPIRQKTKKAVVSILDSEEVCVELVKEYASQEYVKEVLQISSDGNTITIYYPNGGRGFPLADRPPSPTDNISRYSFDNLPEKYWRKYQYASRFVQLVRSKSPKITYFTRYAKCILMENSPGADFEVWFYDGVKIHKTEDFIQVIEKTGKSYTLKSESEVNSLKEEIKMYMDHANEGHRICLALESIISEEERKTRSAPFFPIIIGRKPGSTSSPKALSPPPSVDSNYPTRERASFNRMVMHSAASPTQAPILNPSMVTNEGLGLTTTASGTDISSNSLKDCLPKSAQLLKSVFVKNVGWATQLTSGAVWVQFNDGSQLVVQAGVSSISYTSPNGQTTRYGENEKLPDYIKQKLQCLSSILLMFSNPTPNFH

Row | Structure (SMILES) | kinase still bound, per cent of control (PTK2B (human)) [%] | kinase still bound, per cent of control (TTK (human) [1]) [%] | kinase still bound, per cent of control (MYLK (human)) [%] | kinase still bound, per cent of control (RPS6KA6 KD2 (human)) [%] | kinase still bound, per cent of control (PTK2 (human)) [%] | kinase still bound, per cent of control (PRKD2 (human)) [%] | kinase still bound, per cent of control (GAK (human)) [%] | kinase still bound, per cent of control (STK33 (human)) [%] | kinase still bound, per cent of control (PRKD1 (human)) [%] | kinase still bound, per cent of control (DCLK2 (human)) [%] | kinase still bound, per cent of control (PLK1 (human)) [%] | kinase still bound, per cent of control (DCLK1 (human)) [%] | kinase still bound, per cent of control (PLK3 (human)) [%] | kinase still bound, per cent of control (RPS6KA2 KD2 (human)) [%] | kinase still bound, per cent of control (PLK4 (human)) [%] | also measured
1 | COc1cc(N2CCN(C)CC2)ccc1Nc1ncc2c(n1)N(C1CCCC1)C(C)CC(=O)N2C (stereo not drawn) | 4.6 | 1.4 | 7.6 | 16 | 0.95 | 29 | 1.2 | 5.4 | 24 | 4.5 | 9 | 1.4 | 20 | 12 |  | kinase still bound, per cent of control (SLK (human)): 3.6%; kinase still bound, per cent of control (PRKD3 (human)): 14%; kinase still bound, per cent of control (ALK (human)): 6.6%; kinase still bound, per cent of control (MINK1 (human)): 31%; kinase still bound, per cent of control (FER (human)): 25%; kinase still bound, per cent of control (INSRR (human)): 33%; kinase still bound, per cent of control (ULK2 (human)): 1.3%; kinase still bound, per cent of control (ULK1 (human)): 19%; kinase still bound, per cent of control (CAMKK2 (human)): 24%
2 | COc1cc(N2CCC(N3CCN(C)CC3)CC2)ccc1Nc1ncc2c(n1)N1CCCC1CC(=O)N2C (stereo not drawn) |  | 2.4 | 24 | 17 |  | 23 | 2.6 | 7 | 19 | 25 | 1.8 | 0.65 | 0.95 | 13 | 26 | kinase still bound, per cent of control (RPS6KA1 KD2 (human)): 28%; kinase still bound, per cent of control [2]: 32%; kinase still bound, per cent of control (RPS6KA4 KD2 (human)): 30%; kinase still bound, per cent of control (CHEK1 (human)): 29%
3 | COc1cc(N2CCC(O)CC2)ccc1Nc1ncc2c(n1)N(C1CCCC1)CCC(=O)N2C | 18 | 3.2 | 25 |  | 6.8 |  | 1.8 | 11 |  |  | 3 |  | 0 |  | 8.3 | IC50 (TTK (human) [3]): 342 nM; kinase still bound, per cent of control [4]: 22%; Kd (TTK (human) [1]): 28.4 nM; kinase still bound, per cent of control [5]: 29%; kinase still bound, per cent of control (DAPK2 (human)): 31%; kinase still bound, per cent of control [6]: 28%; kinase still bound, per cent of control (TNK1 (human)): 26%; kinase still bound, per cent of control [7]: 33%; kinase still bound, per cent of control [8]: 32%
